Data published in patent publication US7271165B2, “Rifamycin analogs and uses thereof” (priority 2003, dated 2007).
Converted amounts (≈) assume the structure as drawn. Like-named read-outs stand apart in the source and are kept apart here.

Experiments:
E coli = assay: MIC assay, E coli; format: cell-based
S. aureus = assay: MIC assay, S. aureus; format: cell-based, Staphylococcus aureus
E. faecalis = assay: MIC assay, E. faecalis; format: cell-based, Enterococcus faecalis
H. flu = format: cell-based, H. influenza
S. pneumo. = assay: MIC assay, S. pneumo.; format: cell-based, Streptococcus pneumoniae

Compound | melting point | MIC (μg/mL) E coli (E coli) | MIC (μg/mL) S. aureus (S. aureus) | MIC (μg/mL) E. faecalis (E. faecalis) | MIC (μg/mL) H. flu (H. flu; H. flu) | MIC (μg/mL) S. pneumo. (S. pneumo.) | MIC (μg/mL) H. flu (H. flu)
CO[C@H]1/C=C/OC2(C)Oc3c(C)c(O)c4c(=O)c(c5oc6cc(N7CC8CC7CN8)cc(O)c6nc-5c4c3C2=O)NC(=O)/C(C)=C\C=C\[C@H](C)[C@H](O)[C@@H](C)[C@@H](O)[C@@H](C)[C@H](OC(C)=O)[C@@H]1C (some centres unmarked) | > 330 °C |  |  |  |  |  | 
CO[C@H]1/C=C/OC2(C)Oc3c(C)c(O)c4c(=O)c(c5oc6cc(N7CC8CCC7CN8)cc(O)c6nc-5c4c3C2=O)NC(=O)/C(C)=C\C=C\[C@H](C)[C@H](O)[C@@H](C)[C@@H](O)[C@@H](C)[C@H](OC(C)=O)[C@@H]1C (some centres unmarked) | > 300 °C |  |  |  |  |  | 
COC1C=COC2(C)Oc3c(C)c(O)c4c(=O)c(c5oc6cc(N7CCCC7)c(C7CCCCC7)cc6nc-5c4c3C2=O)NC(=O)C(C)=CC=CC(C)C(O)C(C)C(O)C(C)C(O)C1C (centres unmarked) [Compound 115] |  | >8 µg/mL | 2 µg/mL (≈ 2.24 µM) | >8 µg/mL | 8 µg/mL (≈ 8.95 µM) | 0.25 µg/mL (≈ 0.28 µM) | 
COC1C=COC2(C)Oc3c(C)c(O)c4c(=O)c(c5oc6cc(N7CCCC7)c(C)c(C)c6nc-5c4c3C2=O)NC(=O)C(C)=CC=CC(C)C(O)C(C)C(O)C(C)C(O)C1C (centres unmarked) [Compound 117] |  | >8 µg/mL | 0.5 µg/mL (≈ 0.595 µM) | 4 µg/mL (≈ 4.76 µM) | 1 µg/mL (≈ 1.19 µM) | 0.06 µg/mL (≈ 0.0714 µM) | 
COc1c(N2CCCC2)cc(C)c2nc3c4c5c6c(C)c(O)c4c(=O)c(c-3oc12)NC(=O)C(C)=CC=CC(C)C(O)C(C)C(O)C(C)C(O)C(C)C(OC)C=COC(C)(O6)C5=O (centres unmarked) [Compound 118] |  | 8 µg/mL (≈ 9.35 µM) | 0.06 µg/mL (≈ 0.0701 µM) | 2 µg/mL (≈ 2.34 µM) | 0.12 µg/mL (≈ 0.14 µM) | 0.03 µg/mL (≈ 0.035 µM) | 
COC1C=COC2(C)Oc3c(C)c(O)c4c(=O)c(c5oc6cc(N7CCC(F)C7)ccc6nc-5c4c3C2=O)NC(=O)C(C)=CC=CC(C)C(O)C(C)C(O)C(C)C(O)C1C (centres unmarked) [Compound 119] |  | 4 µg/mL (≈ 4.82 µM) | 0.03 µg/mL (≈ 0.0361 µM) | 0.5 µg/mL (≈ 0.602 µM) | 0.06 µg/mL (≈ 0.0723 µM) | 0.015 µg/mL (≈ 0.0181 µM) | 
COC1C=COC2(C)Oc3c(C)c(O)c4c(=O)c(c5oc6cc(N7CCCC7)c(F)cc6nc-5c4c3C2=O)NC(=O)C(C)=CC=CC(C)C(O)C(C)C(O)C(C)C(O)C1C (centres unmarked) [Compound 120] |  | 8 µg/mL (≈ 9.64 µM) | 0.03 µg/mL (≈ 0.0361 µM) | 1 µg/mL (≈ 1.2 µM) | 0.12 µg/mL (≈ 0.145 µM) | 0.06 µg/mL (≈ 0.0723 µM) | 
COC1C=COC2(C)Oc3c(C)c(O)c4c(=O)c(c5oc6cc(N7CCCN(C)CC7)cc(O)c6nc-5c4c3C2=O)NC(=O)C(C)=CC=CC(C)C(O)C(C)C(O)C(C)C(O)C1C (centres unmarked) [Compound 121] |  | 4 µg/mL (≈ 4.59 µM) | 0.004 µg/mL (≈ 0.00459 µM) | 0.03 µg/mL (≈ 0.0344 µM) | 0.25 µg/mL (≈ 0.287 µM) | 0.00012 µg/mL (≈ 0.000138 µM) | 
COC1C=COC2(C)Oc3c(C)c(O)c4c(=O)c(c5sc6cc(N7CCCN(C)CC7)ccc6nc-5c4c3C2=O)NC(=O)C(C)=CC=CC(C)C(O)C(C)C(O)C(C)C(O)C1C (centres unmarked) [Compound 122] |  | 2 µg/mL (≈ 2.3 µM) | 0.002 µg/mL (≈ 0.0023 µM) | 0.25 µg/mL (≈ 0.287 µM) | 0.12 µg/mL (≈ 0.138 µM) | 0.00025 µg/mL (≈ 0.000287 µM) | 
COC1C=COC2(C)Oc3c(C)c(O)c4c(=O)c(c5oc6cc(N(C)CC(C)C)cc(O)c6nc-5c4c3C2=O)NC(=O)C(C)=CC=CC(C)C(O)C(C)C(O)C(C)C(O)C1C (centres unmarked) [Compound 125] |  | >8 µg/mL | 0.015 µg/mL (≈ 0.0178 µM) | 0.5 µg/mL (≈ 0.592 µM) | 0.5 µg/mL (≈ 0.592 µM) | 0.002 µg/mL (≈ 0.00237 µM) | 
COC1C=COC2(C)Oc3c(C)c(O)c4c(=O)c(c5oc6cc(N(C)C7CCN(C)CC7)cc(O)c6nc-5c4c3C2=O)NC(=O)C(C)=CC=CC(C)C(O)C(C)C(O)C(C)C(O)C1C (centres unmarked) [Compound 126] |  | 4 µg/mL (≈ 4.52 µM) | 0.004 µg/mL (≈ 0.00452 µM) | 0.5 µg/mL (≈ 0.565 µM) | 0.25 µg/mL (≈ 0.282 µM) | 0.00025 µg/mL (≈ 0.000282 µM) | 
COC1C=COC2(C)Oc3c(C)c(O)c4c(=O)c(c5oc6cc(N(C)CCC#N)ccc6nc-5c4c3C2=O)NC(=O)C(C)=CC=CC(C)C(O)C(C)C(O)C(C)C(O)C1C (centres unmarked) [Compound 127] |  | 8 µg/mL (≈ 9.7 µM) | 0.06 µg/mL (≈ 0.0727 µM) | 0.5 µg/mL (≈ 0.606 µM) | 0.12 µg/mL (≈ 0.145 µM) | 0.008 µg/mL (≈ 0.0097 µM) | 
COC1C=COC2(C)Oc3c(C)c(O)c4c(=O)c(c5oc6cc(N7CCOCC7)cc(O)c6nc-5c4c3C2=O)NC(=O)C(C)=CC=CC(C)C(O)C(C)C(O)C(C)C(O)C1C (centres unmarked) [Compound 128] |  | >8 µg/mL | 0.004 µg/mL (≈ 0.00474 µM) | 0.06 µg/mL (≈ 0.0711 µM) |  | 0.00025 µg/mL (≈ 0.000296 µM) | 0.12 µg/mL (≈ 0.142 µM)
COC1C=COC2(C)Oc3c(C)c(O)c4c(=O)c(c5sc6cc(N7CCOCC7)ccc6nc-5c4c3C2=O)NC(=O)C(C)=CC=CC(C)C(O)C(C)C(O)C(C)C(O)C1C (centres unmarked) [Compound 129] |  | 4 µg/mL (≈ 4.74 µM) | 0.015 µg/mL (≈ 0.0178 µM) | 0.5 µg/mL (≈ 0.592 µM) |  | 0.001 µg/mL (≈ 0.00118 µM) | 0.06 µg/mL (≈ 0.0711 µM)
CO[C@H]1/C=C/O[C@@]2(C)Oc3c(C)c(O)c4c(=O)c(c5n(C)c6ccccc6nc-5c4c3C2=O)NC(=O)/C(C)=C\C=C\[C@H](C)[C@H](O)[C@@H](C)[C@@H](O)[C@@H](C)[C@H](O)[C@@H]1C [Compound 131] |  | 8 µg/mL (≈ 10.6 µM) | 0.5 µg/mL (≈ 0.661 µM) | 2 µg/mL (≈ 2.65 µM) |  | 0.5 µg/mL (≈ 0.661 µM) | 2 µg/mL (≈ 2.65 µM)
C=CCc1cc(C)cc2nc3c4c5c6c(C)c(O)c4c(=O)c(c-3oc12)NC(=O)C(C)=CC=CC(C)C(O)C(C)C(O)C(C)C(O)C(C)C(OC)C=COC(C)(O6)C5=O (centres unmarked) [Compound 132] |  | >8 µg/mL | 0.06 µg/mL (≈ 0.0753 µM) | 2 µg/mL (≈ 2.51 µM) |  | 0.03 µg/mL (≈ 0.0376 µM) | 0.5 µg/mL (≈ 0.627 µM)
CO[C@H]1/C=C/O[C@@]2(C)Oc3c(C)c(O)c4c(=O)c(c5oc6cccc(O)c6nc-5c4c3C2=O)NC(=O)/C(C)=C\C=C\[C@H](C)[C@H](O)[C@@H](C)[C@@H](O)[C@@H](C)[C@H](O)[C@@H]1C [Compound 133] |  | 8 µg/mL (≈ 10.5 µM) | 0.004 µg/mL (≈ 0.00527 µM) | 0.12 µg/mL (≈ 0.158 µM) |  | 0.002 µg/mL (≈ 0.00264 µM) | 0.25 µg/mL (≈ 0.329 µM)
